From patent US8609419B2, “Method for inserting a nucleic acid of interest into a prokaryotic or eukaryotic cell by homologous recombination” (Centre National de la Recherche Scientifique, priority 2002, dated 2013)

System: Escherichia coli cell genome
Assay: Targeted insertion of lacZ::kan by homologous recombination from N-AcO-AAF-treated pCUL-lacZ::kan plasmid (white/total colonies)
Type: cell-based
Conditions: for Recombination frequency: white colonies/total colonies / Total number of colonies/number of recombined colonies: E. coli
Description: Reaction mixture • Plasmid DNA: Final concentration of 0.5 μg/μl in 2×10^−3 M citrate buffer, pH 7 • N-AcO-AAF: Final concentration of 400 μg/ml in ethanol.
60 μg DNA are added in 114 μl of 2×10^−3 M citrate buffer, pH7, added with 3 μl of ethanol at 100%.
The solution is preheated at 37° C.; then 3 μl of N-AcO-AAF (400 μg/ml) are added, marked with tritium (^3H).
Reaction time: 4, 8, 20 minutes.
40 μl are taken at the various selected times. The reaction is stopped by a DNA precipitation step with 3 volumes of ethanol/sodium acetate 0.16M followed by three other precipitation steps under the same conditions.
The percentage of modified bases is determined measuring the number of plasmid mols through UV spectrophotometry and the number of bound AAF mols, through βradioactivity counting.
The result is expressed in percentage of modified bases. The reaction time is adapted as a function of the size of the plasmid and the desired percentage of modified bases.
E. coli cells are transformed following the conventional electroporation method by using the conditions recommended by the device manufacturers to this end (Gene Pulser from Biorad for example).
In the example, transformant clones are selected on a LB-agar medium containing kanamycin (20 μg/ml) and the lack of β-galactosidase activity (being expressed by white colonies instead of blue ones), i.e. a phenotype typical of a non reciprocal recombination event is visualized by means of the presence of X-gal (5-bromo-4-chloro-3-indolyl-β-D-galactopyranoside) and IPTG (isopropyl-β-D-thiogalactopyranoside) in the dishes.

**Q.** With `CC(=O)ON(C(C)=O)c1ccc2c(c1)Cc1ccccc1-2` [N-AcO-AAF, N-acetoxy-2-acetylaminofluorene] as the molecule, how does the “Recombination frequency: white colonies/total colonies” value (10 AAF injuries per plasmid) read?
**A.** 0.056

**Q.** What about the “Total number of colonies/number of recombined colonies” value (10 AAF injuries per plasmid) of the same molecule?
**A.** 17819/10

**Q.** What about the “Recombination frequency: white colonies/total colonies” value (20 AAF injuries per plasmid) of the same molecule?
**A.** 0.17

**Q.** What about the “Total number of colonies/number of recombined colonies” value (20 AAF injuries per plasmid) of the same molecule?
**A.** 9692/17

**Q.** And the “Recombination frequency: white colonies/total colonies” value (33 AAF injuries per plasmid)?
**A.** 0.32

**Q.** And the “Total number of colonies/number of recombined colonies” value (33 AAF injuries per plasmid)?
**A.** 2301975

**Q.** What about the “Recombination frequency: white colonies/total colonies” value (43 AAF injuries per plasmid) of the same molecule?
**A.** 1.41

**Q.** What about the “Total number of colonies/number of recombined colonies” value (43 AAF injuries per plasmid) of the same molecule?
**A.** 16554/237

**Q.** And the targeted recombinant molecules (67 AAF injuries on the plasmid, wild strain for recombination systems)?
**A.** more than 6%

**Q.** And the “Recombination frequency: white colonies/total colonies” value (67 AAF injuries per plasmid)?
**A.** 6.07

**Q.** And the “Total number of colonies/number of recombined colonies” value (67 AAF injuries per plasmid)?
**A.** 1934/125

**Q.** And the “increase in the recombination frequency” value (67 AAF injuries versus spontaneous events)?
**A.** more than 1,700 fold

**Q.** And the “frequency of homologous recombination events” value (67 molecules of N-AcO-AAF per molecule of the DNA vector)?
**A.** more than 600×10^−4

**Q.** And the “frequency of non reciprocal homologous recombination events from the DNA vector to the chromosome” value (N-AcO-AAF bound onto the polynucleotide)?
**A.** higher than 0.05 homologous recombination events per transfected cell

**Q.** And the “frequency of homologous recombination events” value (ten molecules of N-AcO-AAF per molecule of the DNA vector)?
**A.** 5.61×10^−4
